Assay results taken from patent publication US12357699B2, “B-cell immunotherapy in cancer treatment” (AKAMARA THERAPEUTICS, INC., priority 2018, dated 2025).

Experiments:
[1] = tested on: IGKC; assay: Semi-quantitative PCR of immune activating and suppressive genes in 4T1 tumors; assay type: in vivo, Balb/c mice; settings: 4T1 tumors harvested after one cycle, 20 mgPt/kg
From the text: (§1) The efficacy of IO-125 was examined in the murine triple negative breast cancer (TNBC) tumor model (4T1). 4T1 cells were subcutaneously implanted in Balb/c mice to generate tumors and treated with IO-125 or saline (control), when tumors reached an average volume of 100 mm^3. The dose administered for IO-125 was 20 mgPt/kg, with a regimen of b5d. Following one cycle of treatment, tumors were harvested and a portion of the tumor from control and IO-125 treated group was used for total RNA isolation and subsequent evaluation of immune activating and immune suppressive genes (Denkert et al., Clin Oncol. 2015; 33(9):983-91) by semi-quantitative PCR. IO-125 treatment was continued for an additional cycle, with recording of tumor volume and examination of tumors for regression.

[2] = tested on: 4T1 cells; assay: Murine triple negative breast cancer (TNBC) tumor model (4T1 s.c. in Balb/c mice); assay type: in vivo; settings: 4T1 tumor-bearing Balb/c mice, 20 mgPt/kg, two cycles
From the text: as §1

[3] = tested on: IGKC; assay: Immune biomarker expression (molecular immunophenotyping, immunohistochemistry of FFPE sections) in LLC tumors; assay type: in vivo, C57/BL6 mice
From the text: (§2) In contrast, 45% of the animals underwent complete tumor regression when the two drugs were combined. These observations illustrate that combinations of IO-125 with immune checkpoint inhibitor(s) augment tumor regression as compared to monotherapies.
Subsequently, tumors were harvested and a portion fixed in formalin.

[4] = tested on: LLC cells; assay: Combination of PD1 immune checkpoint inhibitor and IO-125 in immunocompetent murine NSCLC tumor model (LLC cells s.c. in C57/BL6 mice); assay type: in vivo; settings: syngeneic lung cancer (LLC) bearing animals, two cycles
Procedure: The combination of a PD1 immune checkpoint inhibitor and IO-125 was evaluated in an immunocompetent murine NSCLS tumor model. The murine NSCLC tumor model was generated by subcutaneously implanting LLC cells in C57/BL6 mice. Treatment with saline (control), IO-125, immune check point inhibitor (anti-PD1 antibody, Biolegend) or combinatorial therapy (IO-125 and anti-PD1 antibody) was initiated when average tumor volume in the animals reached 100 mm^3, through i.v. administration of compounds. A schematic representation of the treatment regimen is depicted in FIG. 1A.
as §2

[5] = tested on: genes involved in B cell differentiation and TLR activation; assay: Relative mRNA expression in splenic B cells isolated from treated mice; assay type: in vivo, Balb/c mice; settings: tumor bearing treated mice (Group 1)
Procedure: Splenic B cells were isolated from Group 1 and Group 2 mice, described in Example 3. Spleen was harvested from mice (n=3) and minced into small pieces in RPMI-1640 basal media. The pieces were placed on top of a 40 mesh membrane and crushed with the back of a syringe and the single cell suspension was collected onto a 50 mL tube. The single cell suspension was washed twice with PBS to remove debris by centrifuging at 2000 rpm. Splenocytes were counted using haemocytometer and 100 million splenocytes were resuspended in 1 mL of Isolation buffer (2% FBS, […] in DPBS) and transferred to a 5 ml Polystyrene tube. The B cells were isolated from splenocytes using the EasySep Stem Cell B cell isolation kit as per manufacturers protocol. One part of the isolated B cells was used for RNA isolation, followed by relative mRNA expression levels of genes involved in B cell differentiation and TLR activation were evaluated; while the second part was used for immunodetection of specific proteins, following the manufacturer's protocol.

[6] = tested on: 4T1 cells; assay: 4T1 tumor growth in mice lacking functional B cells and T cells (SCID); assay type: in vivo; settings: 4T1 tumors
Procedure: (§3) 4T1 cells were subcutaneously implanted in the mice strains mentioned and when tumors reached an average volume of 100 mm^3, they were divided into two groups. One group was kept as control and the other treated with IO-125 and tumor volume in all the animals were recorded.

[7] = tested on: 4T1 cells; assay: Tumor rechallenge (immune memory study), re-implantation of 4T1 cells; assay type: in vivo, Balb/c mice
Procedure: 4T1 cells were subcutaneously implanted in Balb/c mice to generate tumors. When tumors reached an average volume of 100 mm^3, they were treated with IO-125 (Group 1). Two groups of Balb/c mice (non-tumor bearing) were either treated with IO-125 or saline (designated Group 2 and 3 respectively; FIG. 3A). Immune memory cells are poised to rapidly expand and induce effector functions upon recurrence, while existing in a functionally quiescent state. To verify this hypothesis, we examined immune memory in IO-125 treated tumors.

[8] = tested on: 4T1 cells; assay: 4T1 tumor growth in B cell-deficient mice (Jh−/−); assay type: in vivo; settings: 4T1 tumors
Procedure: as §3

[9] = tested on: B cell differentiation and TLR activation markers; assay: Relative mRNA expression in naive splenic B cells cultured with conditioned media (TCM) from treated 4T1 cells; assay type: cell-based, mice; settings: splenic B cells 48 hours in TCM from 4T1 cells treated 6 hours plus 42 hours
Procedure: 4T1 cells were seeded in cell culture dishes in IMDM media containing 10% FBS. The cells were treated with blank supramolecule (Vehicle) and IO-125 when they reached 60% confluence. Following a transient treatment of 6 hours, the media was removed and supplemented with fresh culture media and cells were incubated for additional 42 hours. Following treatment, the conditioned media from 4T1 cells (TCM) was collected for each treatment and filtered through 0.2 micron PES filters to obtain TCM free of cell debris. The harvested TCMs were used immediately for conditioning of B cells, isolated from naïve mice splenocytes using the EasySep Stem Cell B cell isolation kit as per manufacturers protocol. The B cells were incubated with conditioned media and harvested after 48 hours of incubation. RNA was isolated from the B cells and used for relative mRNA expression level evaluation of genes involved in B cell differentiation and TLR activation.

SMILES: CC(C)CCCC(C)C1CCC2C3CC=C4CC(OCCN(CC(=O)[O-])CC(=O)[O][Pt+]5[NH]C6CCCCC6[NH]5)CCC4(C)C3CCC12C (stereo not drawn) [IO-125]
- IGKC mRNA levels in tumors (FIG. 2B) [1]: significant increase in IGKC mRNA levels
- tumor growth curve (FIG. 2A) [2]: complete regression of tumors
- IGKC levels (FIG. 2D) ([3]; LLC tumors of treated animals, relative expression of immune biomarkers): increase in IGKC levels
- immunodetection of B220 and IGKC in tumor sections (FIG. 2E) ([3]; treated versus control tumors): significantly increased expression of IGKC
- tumor growth curves (FIG. 2C) [4]: significant tumor growth inhibition but no regression
- expression of TLRs and CD80 in splenic B cells [5]: elevated expression of TLRs and CD80
- IGKC mRNA levels in splenic B cells (FIG. 5B) ([5]; normalized to Group 2): significant increase in IGKC mRNA levels
- tumor ablation in SCID mice (FIG. 4D) [6]: Tumor ablation did not occur
- tumor growth after re-implantation of cancer cells, Group 1 ([7]; animals that had previously undergone tumor regression with treatment): no tumor growth was observed
- tumor growth after implantation of 4T1 cells, Group 2 ([7]; non-tumor bearing Balb/c mice pre-treated, compared with saline treated mice (Group 3)): led to the growth of tumors
- tumor ablation in Jh−/− mice (FIG. 4C) [8]: Tumor ablation did not occur
- B cell differentiation markers and TLR activation markers, relative mRNA (FIG. 4B) [9]: substantially increased
